Experimental data: PubChem BioAssay (NCI)
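Cultured in 96-well plates, cells were exposed to test compound for 48 hours across five concentrations. The concentration for 50% growth inhibition is given as GI50. TGI: concentration producing complete growth inhibition.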

Tests used:
Experiment in all cases: inhibition of tumour cell growth, NCI panel, 48 h
CCRF-CEM leukemia = tested on: CCRF-CEM leukemia
ACHN renal = tested on: ACHN renal
OVCAR-4 ovarian = tested on: OVCAR-4 ovarian
HL-60(TB) leukemia = tested on: HL-60(TB) leukemia
TK-10 renal = tested on: TK-10 renal
U251 CNS = tested on: U251 CNS
OVCAR-3 ovarian = tested on: OVCAR-3 ovarian
IGROV1 ovarian = tested on: IGROV1 ovarian
MDA-MB-435 = tested on: MDA-MB-435
BT-549 breast = tested on: BT-549 breast

Structure (SMILES)	TGI (CCRF-CEM leukemia) [µM]	TGI (ACHN renal) [µM]	TGI (OVCAR-4 ovarian) [µM]	TGI (HL-60(TB) leukemia) [µM]	TGI (TK-10 renal) [µM]	TGI (U251 CNS) [µM]	TGI (OVCAR-3 ovarian) [µM]	TGI (IGROV1 ovarian) [µM]	GI50 (CCRF-CEM leukemia) [µM]	GI50 (ACHN renal) [µM]	GI50 (OVCAR-4 ovarian) [µM]	GI50 (HL-60(TB) leukemia) [µM]	GI50 (TK-10 renal) [µM]	GI50 (U251 CNS) [µM]	GI50 (OVCAR-3 ovarian) [µM]	GI50 (IGROV1 ovarian) [µM]	GI50 (MDA-MB-435) [µM]	TGI (MDA-MB-435) [µM]	TGI (BT-549 breast) [µM]	GI50 (BT-549 breast) [µM]
O=C1C2c3[nH]c4ccccc4c3C3CCCCCC3C2C(=O)N1c1ccccc1 (stereo not given)	23.1	> 91.1	> 24.5	> 70.3	> 100	> 45.6	35.7	72	–	–	–	–	–	–	–	–	–	–	–	–
COc1cc(C2C(C(=O)Nc3ccc([N+](=O)[O-])cc3)=C(C)NC(C)=C2C(=O)Nc2ccc([N+](=O)[O-])cc2)ccc1O	> 100	> 67.2	> 70.8	> 100	68.7	33.8	55.7	65.4	–	–	–	–	–	–	–	–	–	–	–	–
CC(=O)[CH-]C(=O)c1ccccc1.CC(=O)[CH-]C(=O)c1ccccc1.CC(C)CCC[C@H](C)C1CCC2[C@@H]3CC=C4C[C@@H]([O-])CC[C@]4(C)C3CC[C@@]21C.CC(C)CCC[C@H](C)C1CCC2[C@@H]3CC=C4C[C@@H]([O-])CC[C@]4(C)C3CC[C@@]21C.Cl.[Ti+4] (stereo not given in full)	> 25	> 25	> 25	> 25	> 25	> 25	> 25	> 25	> 25	> 25	> 25	13.7	> 25	> 25	> 25	> 25	–	–	–	–
COc1cc(-c2ccc(NC(=O)SCCC(=O)O)cc2OC)ccc1NC(=O)SCCC(=O)O	> 100	> 100	> 100	> 100	> 100	> 100	> 100	–	–	–	–	–	–	–	–	–	–	–	–	–
O=C(COc1ccc(OCC(=O)N2C(=O)CN(c3ccccc3)C2=S)cc1)N1C(=O)CN(c2ccccc2)C1=S	–	> 100	> 100	> 100	> 100	> 100	> 100	> 100	–	> 25	> 25	–	> 25	> 25	> 25	29.3	> 25	> 100	> 100	–
COc1cc(/C=C/c2ccc(Br)cc2)cc(OC)c1OC	> 88	> 100	87.1	19	> 100	30.7	26.4	> 100	–	–	–	–	–	–	–	–	–	–	–	–
COC1[C@H](NC(=O)OC(C)(C)C)C(=O)N1Cc1ccccc1 (stereo not given in full)	> 100	> 100	> 100	> 100	> 100	> 100	> 100	> 100	–	–	–	–	–	–	–	–	–	–	–	–
COc1ccc(S(=O)(=O)N[C@H](C(=O)O)c2ccccc2)cc1	> 100	> 100	> 100	–	> 100	> 100	> 100	> 100	–	–	–	–	–	–	–	–	–	–	–	–
Clc1ccc2ncc(-c3cccc(NC4CNC4)n3)n2c1	72.7	> 100	–	42.2	93.3	48.7	> 100	44.6	3.62	1.91	–	4.54	8.03	6.85	18.9	4.57	4.76	21.5	31.8	10.5
CCCCCCCCCCCCCCCCc1c(C(=O)OC)nc(NN)[nH]c1=O	> 50	> 50	> 50	> 50	> 50	> 50	> 50	> 50	–	–	–	–	–	–	–	–	–	–	–	–
Cc1nc(N)c(-c2ccccc2)s1	> 73.9	> 100	> 100	> 72.9	> 100	> 76.4	> 100	> 100	–	–	–	–	–	–	–	–	–	–	–	–
COc1cccc2nc3ccccc3nc12	> 100	63.4	–	> 100	> 100	> 100	> 100	–	–	–	–	–	–	–	–	–	–	> 100	–	–
COc1ccc2nc(-c3ccccc3)cc(Nc3cccc(C(C)=O)c3)c2c1	> 100	22.5	62.8	–	28.5	16.8	–	> 100	> 100	5.78	7.05	–	12.6	1.96	–	20.6	4.51	17.1	40.3	18.2
CCN(CC)CC(=O)NC1c2ccccc2Oc2c(C)cccc21 (stereo not given)	> 100	> 100	> 100	> 100	> 100	–	–	> 100	–	–	–	–	–	–	–	–	–	–	–	–
COc1ccc(-c2ccccc2)c2[nH]c3c(c12)CCNC3=O	> 100	–	> 100	> 100	> 100	> 100	> 100	> 100	–	–	–	–	–	–	–	–	–	–	–	–
O=C(N/C(=C\c1ccccc1Cl)c1nc2ccccc2[nH]1)c1ccccc1	> 100	> 100	> 100	71.4	> 100	> 100	> 100	> 100	–	–	–	–	–	–	–	–	–	–	–	–
O=C1C=CC(=Nc2cccc3c(N=C4C=CC(=O)O4)cccc23)O1	–	78.5	> 100	–	33.3	> 100	> 100	> 100	–	–	–	–	–	–	–	–	–	> 100	> 100	–
COC(=O)C1C(=O)O[C@@H](c2ccc(OC)c(OC)c2OC)C1C(=O)OC (mixture of isomers)	> 100	> 100	> 100	> 100	> 100	> 100	> 100	> 100	–	–	–	–	–	–	–	–	–	–	–	–
CCN(CC)CCN1C(=O)C2C3C(=O)CC(C)(CC3C)C2C1=O (stereo not given)	> 100	> 100	> 100	> 100	> 100	> 100	–	> 100	> 100	> 100	> 100	> 100	> 100	> 100	–	> 100	> 100	> 100	> 100	> 100
COc1ccc2c(c1)[n+](=O)c(C(=O)C/C(=N/NC(=O)C[N+](C)(C)C)C(=O)Nc1cccc(C)c1C)c(C)n2O	–	> 100	> 100	–	–	> 100	> 100	> 100	–	–	–	–	–	–	–	–	–	–	–	–
